Results taken from paper PMC9316317, “Reducing the Kidney Uptake of High Contrast CXCR4 PET Imaging Agents via Linker Modifications” (Pharmaceutics, 2022).
Where a SMILES comes first, the peptide text is derived from it. Side-chain parts run from the residue outwards. [ ]: non-standard residue; d: D form. The star is where a group is joined. DOTA = O=C(O)CN1CCN(CC(=O)O)CCN(CC(=O)*)CCN(CC(=O)O)CC1; 2Nal = N[C@@H](Cc1ccc2ccccc2c1)C(=O)O; dNMeOrn = CN[C@H](CCCN)C(=O)O; 4Amb = NCc1ccc(C(=O)O)cc1

How the values were obtained:
[1] = Ex vivo biodistribution in Daudi xenograft-bearing mice; conditions: male, NOD.Cg-Rag1tm1Mom Il2rgtm1Wjl/SzJ (NRG), mouse, iv, total radioactivity; for tissue uptake at 2 h: 2 h p.i.
Procedure: (§1) Male NOD.Cg-Rag1tm1Mom Il2rgtm1Wjl/SzJ (NRG) mice were obtained from an in-house breeding colony at the Animal Resource Centre of the BC Cancer Research Centre, Vancouver, Canada. Mice (6–10 weeks old, 25–30 g weight) were subcutaneously inoculated with 5 × 10^6 Daudi cells (100 μL; 1:1 ratio of PBS/Matrigel) on the left flank.
(§2) Additional groups of mice received 7.5 µg (0.25–0.3 mg/kg) LY2510924 as a blocking control i.p. 15 min before radiotracer injection, and euthanized 1 h p.i. Tissues were harvested, washed in PBS, blotted dry, and weighed, and radioactivity was counted on a Hidex AMG Automatic Gamma Counter. The counts were decay corrected, converted to absolute units using a calibration curve, and expressed as percent injected dose per gram of tissue (%ID/g).

[2] = system: CXCR4-expressing Daudi xenograft mice; test: as above
Procedure: as §1, §2

[3] = 1 h p.i. blocked with LY2510924, mean

`CN1C(=O)[C@@H](Cc2ccc(O)cc2)NC(=O)CNC(=O)[C@H](Cc2ccc3ccccc3c2)NC(=O)[C@H](CCCNC(=N)N)NC(=O)[C@H]1CCCNC(=O)c1ccc(CNC(=O)CN2CCN(CC(=O)O)CCN(CC(=O)O)CCN(CC(=O)O)CC2)cc1` [[68Ga]Ga-Pentixafor, metal not drawn] (cyclo([dY][dNMeOrn]([4Amb-DOTA])R[2Nal]G)) showed a tissue uptake at 1 h ([1]; adrenals, Adrenals uptake, 1 h p.i. blocked with LY2510924, mean) of 0.38 %ID/g, a tissue uptake at 1 h ([1]; adrenals, Adrenals uptake, 1 h p.i., mean) of 0.34 %ID/g and a tissue uptake at 2 h ([1]; adrenals, Adrenals uptake, mean) of 0.18 %ID/g. For the same compound, the tissue uptake at 1 h ([1]; blood, Blood uptake, 1 h p.i. blocked (7.5 µg LY2510924 i.p. 15 min before tracer), mean) was 1.23 %ID/g, the tissue uptake at 2 h ([1]; blood, Blood uptake, mean) was 0.28 ± 0.04 %ID/g and the tissue uptake at 1 h ([1]; bone, Bone uptake, 1 h p.i. blocked with LY2510924, mean) was 0.27 %ID/g. The tissue uptake at 1 h ([1]; bone, Bone uptake, 1 h p.i., mean) was 0.18 %ID/g, the tissue uptake at 2 h ([1]; bone, Bone uptake, mean) was 0.14 %ID/g and the tissue uptake at 1 h ([1]; brain, Brain uptake, 1 h p.i. blocked with LY2510924, mean) was 0.03 %ID/g. For the same compound, the tissue uptake at 1 h ([1]; brain, Brain uptake, 1 h p.i., mean) was 0.03 %ID/g, the tissue uptake at 2 h ([1]; brain, Brain uptake, mean) was 0.01 %ID/g and the tissue uptake at 1 h ([1]; fat, Fat uptake, 1 h p.i. blocked with LY2510924, mean) was 0.18 %ID/g. The tissue uptake at 1 h ([1]; fat, Fat uptake, 1 h p.i., mean) was 0.08 %ID/g, the tissue uptake at 2 h ([1]; fat, Fat uptake, mean) was 0.04 %ID/g and the tissue uptake at 1 h ([1]; heart, Heart uptake, 1 h p.i. blocked with LY2510924, mean) was 0.47 %ID/g. For the same compound, the tissue uptake at 1 h ([1]; heart, Heart uptake, 1 h p.i., mean) was 0.36 %ID/g, the tissue uptake at 2 h ([1]; heart, Heart uptake, mean) was 0.13 %ID/g and the tissue uptake at 1 h ([1]; intestine, Intestine uptake, 1 h p.i. blocked with LY2510924, mean) was 0.59 %ID/g. For the same compound, the tissue uptake at 2 h ([1]; intestine, Intestine uptake, mean) was 0.2 %ID/g, the tissue uptake at 1 h ([1]; kidney, Kidney uptake, 1 h p.i. blocked with LY2510924, mean) was 3.16 %ID/g and the tissue uptake at 1 h ([1]; kidney, Kidney uptake, 1 h p.i., mean) was 2.78 %ID/g. For the same compound, the tissue uptake at 2 h ([1]; kidney, Kidney uptake, mean) was 1.76 ± 0.38 %ID/g, the tissue uptake at 1 h ([1]; liver, Liver uptake, 1 h p.i. blocked with LY2510924, mean) was 1.25 %ID/g and the tissue uptake at 1 h ([1]; liver, Liver uptake, 1 h p.i., mean) was 1.23 ± 0.15 %ID/g. For the same compound, the tissue uptake at 2 h ([1]; liver, Liver uptake, mean) was 0.89 ± 0.12 %ID/g, the tissue uptake at 1 h ([1]; lung, Lung uptake, 1 h p.i. blocked with LY2510924, mean) was 1.39 %ID/g and the tissue uptake at 1 h ([1]; lung, Lung uptake, 1 h p.i., mean) was 1.16 ± 0.14 %ID/g. The tissue uptake at 2 h ([1]; lung, Lung uptake, mean) was 0.54 ± 0.08 %ID/g, the tissue uptake at 1 h ([1]; muscle, Muscle uptake, 1 h p.i. blocked with LY2510924, mean) was 0.26 %ID/g and the tissue uptake at 1 h ([1]; muscle, Muscle uptake, 1 h p.i., mean) was 0.2 %ID/g. It also gave a tissue uptake at 2 h ([1]; muscle, Muscle uptake, mean) of 0.06 ± 0.02 %ID/g, a tissue uptake at 1 h ([1]; pancreas, Pancreas uptake, 1 h p.i. blocked with LY2510924, mean) of 0.25 %ID/g and a tissue uptake at 1 h ([1]; pancreas, Pancreas uptake, 1 h p.i., mean) of 0.21 %ID/g. The tissue uptake at 2 h ([1]; pancreas, Pancreas uptake, mean) was 0.08 %ID/g, the tissue uptake at 1 h ([1]; spleen, Spleen uptake, 1 h p.i. blocked with LY2510924, mean) was 0.59 %ID/g and the tissue uptake at 1 h ([1]; spleen, Spleen uptake, 1 h p.i., mean) was 0.63 %ID/g. For the same compound, the tissue uptake at 2 h ([1]; spleen, Spleen uptake, mean) was 0.33 %ID/g, the tissue uptake at 1 h ([1]; stomach, Stomach uptake, 1 h p.i. blocked with LY2510924, mean) was 0.17 %ID/g and the tissue uptake at 1 h ([1]; stomach, Stomach uptake, 1 h p.i., mean) was 0.13 %ID/g. For the same compound, the tissue uptake at 2 h ([1]; stomach, Stomach uptake, mean) was 0.05 %ID/g, the tissue uptake at 1 h ([1]; testes, Testes uptake, 1 h p.i. blocked with LY2510924, mean) was 0.55 %ID/g and the tissue uptake at 1 h ([1]; testes, Testes uptake, 1 h p.i., mean) was 0.39 %ID/g. For the same compound, the tissue uptake at 2 h ([1]; testes, Testes uptake, mean) was 0.13 %ID/g, the tissue uptake at 1 h ([1]; tumor (Daudi xenograft), Tumor uptake (Daudi xenograft), 1 h p.i. blocked with LY2510924, mean) was 0.61 %ID/g and the tissue uptake at 1 h ([1]; tumor (Daudi xenograft), Tumor uptake (Daudi xenograft), 1 h p.i., mean) was 6.31 ± 1.02 %ID/g. For the same compound, the tissue uptake at 2 h ([1]; tumor (Daudi xenograft), Tumor uptake (Daudi xenograft), mean) was 5.23 %ID/g, the “Tumor:Blood ratio” value [2, 3] was 0.53 and the “Tumor:Bone ratio” value [2, 3] was 2.67. For the same compound, the “Tumor:Liver ratio” value [2, 3] was 0.50, the “Tumor:Lung ratio” value [2, 3] was 0.47 and the “Tumor:Muscle ratio” value [2, 3] was 2.55. For the same compound, the “Tumor:Spleen ratio” value [2, 3] was 1.14, the “Tumor:Blood ratio” value ([2]; 1 h p.i., mean) was 6.53 and the “Tumor:Bone ratio” value ([2]; 1 h p.i., mean) was 35.99. The “Tumor:Kidney ratio” value ([2]; 1 h p.i., mean) was 2.29 ± 0.38, the “Tumor:Liver ratio” value ([2]; 1 h p.i., mean) was 5.14 and the “Tumor:Lung ratio” value ([2]; 1 h p.i., mean) was 5.48. For the same compound, the “Tumor:Muscle ratio” value ([2]; 1 h p.i., mean) was 33.25, the “Tumor:Spleen ratio” value ([2]; 1 h p.i., mean) was 10.20 and the “Tumor:Blood ratio” value ([2]; 2 h p.i., mean) was 18.94. For the same compound, the “Tumor:Bone ratio” value ([2]; 2 h p.i., mean) was 43.48, the “Tumor:Kidney ratio” value ([2]; 2 h p.i., mean) was 3.07 ± 0.54 and the “Tumor:Liver ratio” value ([2]; 2 h p.i., mean) was 5.93. The “Tumor:Lung ratio” value ([2]; 2 h p.i., mean) was 9.95, the “Tumor:Muscle ratio” value ([2]; 2 h p.i., mean) was 95.44 and the “Tumor:Spleen ratio” value ([2]; 2 h p.i., mean) was 16.57.
